Test results reported in patent publication US20240351986A1, “UREA COMPOUND CONTAINING 2-HETEROAROMATIC RING SUBSTITUTION, PREPARATION METHOD THEREFOR AND USE THEREOF” (SHANGHAI INSTITUTE OF MATERIA MEDICA, CHINESE ACADEMY OF …, priority 2021, published 2024).
Counter-ions that a name gives are not always drawn.

Experiments:
Type in all cases: biochemical
[1] = target: T1, Recombinant human CDK9/cyclin T1 (Homo sapiens, UniProt P50750); experiment: CDK9 enzyme inhibitory activity (ADP-Glo kinase assay); details: for inhibition at 0.01 µM / inhibition at 0.1 µM: CDK9 enzyme activity, average of two independent repeats; for inhibition at 0.01 µM: compound 10 nM, read-out: Inhibition rate at different concentrations (%) 10 nM; for inhibition at 0.1 µM: compound 100 nM, read-out: Inhibition rate at different concentrations (%) 100 nM; for IC50: Table 2, read-out: CDK9/CycT1 IC50
T1 construct: purchased Carna bioscience 04-110

CDK6/cyclin D1 = CDK6/cyclin D1 (Homo sapiens, UniProt Q00534); experiment: CDK6 enzyme activity inhibition; details: for inhibition at 0.01 µM: compound 10 nM, read-out: CDK6/Cyc D1 inhibition rate % 10 nM; for inhibition at 0.1 µM: compound 100 nM, read-out: CDK6/Cyc D1 inhibition rate % 100 nM
Protocol: (§1) CDK1,4,6,7 enzyme (CDK1/cyclin B, CDK4/cyclin D1, CDK6/cyclin D1, CDK7/cyclin H) activity was measured using a 5 μL enzyme system (50 mM HEPES, 10 mM MgCl2, 1 mM EGTA, 2 mM DTT and 0.0100 Tween 20, appropriate enzyme) either. A mixture of 2.5 μL of compound, 2.5 µL of substrate and ATP (final concentration of substrate 50 nM, final concentration of ATP 200 μM) was incubated at room temperature in the dark for 60 minutes. Then 5 μL EDTA stop solution diluted in 1× detection buffer (final concentration 6 mM) was added to each well, then an antibody diluted in 1× detection buffer (final concentration 2 nM) was added to incubate for 1 hour at room temperature in the dark, and then the corresponding enzyme activity inhibition rate or IC50 was calculated after measurement.

CDK1/cyclin B = CDK1/cyclin B (Homo sapiens, UniProt P06493); experiment: CDK1 enzyme activity inhibition; details: for inhibition at 0.01 µM: compound 10 nM, read-out: CDK1/Cyc B inhibition rate % 10 nM; for inhibition at 0.1 µM: compound 100 nM, read-out: CDK1/Cyc B inhibition rate % 100 nM
Protocol: as §1

CDK4/cyclin D1 = CDK4/cyclin D1 (Homo sapiens, UniProt P11802); experiment: CDK4 enzyme activity inhibition; details: for inhibition at 0.01 µM: compound 10 nM, read-out: CDK4/Cyc D1 inhibition rate % 10 nM; for inhibition at 0.1 µM: compound 100 nM, read-out: CDK4/Cyc D1 inhibition rate % 100 nM
Protocol: as §1

CDK7/cyclin H = CDK7/cyclin H (Homo sapiens, UniProt P50613); experiment: CDK7 enzyme activity inhibition; details: for inhibition at 0.01 µM: compound 10 nM, read-out: CDK7/Cyc H inhibition rate % 10 nM; for inhibition at 0.1 µM: compound 100 nM, read-out: CDK7/Cyc H inhibition rate % 100 nM
Protocol: as §1

Chain of CDK7/cyclin H (P50613 whole entry, species assumed): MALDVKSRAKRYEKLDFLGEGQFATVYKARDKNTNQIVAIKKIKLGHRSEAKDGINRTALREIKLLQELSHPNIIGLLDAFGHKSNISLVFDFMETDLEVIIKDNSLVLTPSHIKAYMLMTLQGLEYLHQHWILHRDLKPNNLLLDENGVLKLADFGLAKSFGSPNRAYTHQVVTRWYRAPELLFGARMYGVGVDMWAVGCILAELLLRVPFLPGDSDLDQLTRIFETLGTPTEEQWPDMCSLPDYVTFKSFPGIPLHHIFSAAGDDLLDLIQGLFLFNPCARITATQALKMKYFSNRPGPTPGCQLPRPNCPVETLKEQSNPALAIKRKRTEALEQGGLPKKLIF
Chain of CDK7/cyclin H (P51946 whole entry partner, species assumed): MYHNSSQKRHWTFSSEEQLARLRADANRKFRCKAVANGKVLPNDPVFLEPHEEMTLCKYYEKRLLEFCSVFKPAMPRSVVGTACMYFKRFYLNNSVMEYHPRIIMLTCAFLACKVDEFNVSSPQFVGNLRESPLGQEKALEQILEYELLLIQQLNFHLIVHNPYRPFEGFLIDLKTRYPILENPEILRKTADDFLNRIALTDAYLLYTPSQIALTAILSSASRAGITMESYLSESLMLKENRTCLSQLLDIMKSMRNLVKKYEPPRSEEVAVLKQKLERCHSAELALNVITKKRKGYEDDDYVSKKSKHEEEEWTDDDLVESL
T1 sequence (P50750 whole entry): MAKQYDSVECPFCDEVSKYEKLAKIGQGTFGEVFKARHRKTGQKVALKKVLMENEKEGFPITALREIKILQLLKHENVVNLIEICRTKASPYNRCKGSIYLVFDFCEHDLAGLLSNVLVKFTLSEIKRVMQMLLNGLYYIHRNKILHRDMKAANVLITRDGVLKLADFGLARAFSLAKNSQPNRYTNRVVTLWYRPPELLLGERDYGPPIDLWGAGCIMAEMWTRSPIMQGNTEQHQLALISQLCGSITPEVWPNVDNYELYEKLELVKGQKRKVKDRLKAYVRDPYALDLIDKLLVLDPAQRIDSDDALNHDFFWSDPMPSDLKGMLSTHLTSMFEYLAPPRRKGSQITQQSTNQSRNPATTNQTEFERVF
T1 sequence (O60563 whole entry partner): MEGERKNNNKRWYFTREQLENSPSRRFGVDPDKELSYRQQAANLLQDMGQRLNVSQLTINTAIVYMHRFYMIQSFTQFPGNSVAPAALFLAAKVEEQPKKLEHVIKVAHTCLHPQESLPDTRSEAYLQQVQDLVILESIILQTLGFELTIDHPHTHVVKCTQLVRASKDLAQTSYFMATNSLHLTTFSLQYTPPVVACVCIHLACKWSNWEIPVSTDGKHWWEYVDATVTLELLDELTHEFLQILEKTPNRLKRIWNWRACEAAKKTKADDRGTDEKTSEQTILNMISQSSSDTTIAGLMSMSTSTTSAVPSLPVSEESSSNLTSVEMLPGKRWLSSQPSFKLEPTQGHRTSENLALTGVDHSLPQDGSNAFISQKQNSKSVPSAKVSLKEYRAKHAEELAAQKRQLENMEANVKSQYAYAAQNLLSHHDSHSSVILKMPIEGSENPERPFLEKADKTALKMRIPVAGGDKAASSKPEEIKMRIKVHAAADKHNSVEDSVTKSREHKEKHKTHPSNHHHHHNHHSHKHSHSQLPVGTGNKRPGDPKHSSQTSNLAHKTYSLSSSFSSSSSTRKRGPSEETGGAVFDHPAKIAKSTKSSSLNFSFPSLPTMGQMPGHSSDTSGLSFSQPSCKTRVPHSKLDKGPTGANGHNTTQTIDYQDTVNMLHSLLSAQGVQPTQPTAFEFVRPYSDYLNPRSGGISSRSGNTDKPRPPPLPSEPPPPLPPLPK
Chain of CDK1/cyclin B (P06493 whole entry, species assumed): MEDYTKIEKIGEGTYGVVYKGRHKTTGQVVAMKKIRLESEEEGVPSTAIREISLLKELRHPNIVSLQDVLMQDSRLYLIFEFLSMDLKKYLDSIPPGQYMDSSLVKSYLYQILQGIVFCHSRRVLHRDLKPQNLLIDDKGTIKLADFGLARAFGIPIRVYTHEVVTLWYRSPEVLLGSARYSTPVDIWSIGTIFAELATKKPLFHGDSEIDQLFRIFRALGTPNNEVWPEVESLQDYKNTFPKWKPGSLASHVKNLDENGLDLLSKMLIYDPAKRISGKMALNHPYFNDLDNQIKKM
Chain of CDK1/cyclin B (P14635 whole entry partner, species assumed): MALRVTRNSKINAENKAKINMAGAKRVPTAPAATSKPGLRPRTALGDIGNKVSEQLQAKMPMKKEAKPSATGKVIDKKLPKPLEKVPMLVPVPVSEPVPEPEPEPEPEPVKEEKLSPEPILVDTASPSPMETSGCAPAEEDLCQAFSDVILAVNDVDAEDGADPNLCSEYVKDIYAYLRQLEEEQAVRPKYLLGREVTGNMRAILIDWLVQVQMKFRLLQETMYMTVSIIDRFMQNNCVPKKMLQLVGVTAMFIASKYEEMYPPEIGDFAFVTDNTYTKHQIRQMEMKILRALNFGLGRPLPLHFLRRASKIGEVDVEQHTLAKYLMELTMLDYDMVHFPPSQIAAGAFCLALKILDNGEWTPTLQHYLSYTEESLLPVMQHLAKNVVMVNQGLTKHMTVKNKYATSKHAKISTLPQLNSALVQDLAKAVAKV
Chain of CDK6/cyclin D1 (Q00534 whole entry, species assumed): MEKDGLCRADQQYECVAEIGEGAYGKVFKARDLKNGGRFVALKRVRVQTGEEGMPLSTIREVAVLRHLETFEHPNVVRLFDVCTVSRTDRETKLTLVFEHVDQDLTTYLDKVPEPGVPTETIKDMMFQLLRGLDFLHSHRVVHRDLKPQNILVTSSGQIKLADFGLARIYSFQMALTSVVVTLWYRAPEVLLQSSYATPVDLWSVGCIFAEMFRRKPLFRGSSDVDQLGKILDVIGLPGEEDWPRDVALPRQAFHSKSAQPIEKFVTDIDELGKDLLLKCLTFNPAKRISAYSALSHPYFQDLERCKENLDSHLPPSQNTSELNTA
Chain of CDK6/cyclin D1 (P24385 whole entry partner, species assumed): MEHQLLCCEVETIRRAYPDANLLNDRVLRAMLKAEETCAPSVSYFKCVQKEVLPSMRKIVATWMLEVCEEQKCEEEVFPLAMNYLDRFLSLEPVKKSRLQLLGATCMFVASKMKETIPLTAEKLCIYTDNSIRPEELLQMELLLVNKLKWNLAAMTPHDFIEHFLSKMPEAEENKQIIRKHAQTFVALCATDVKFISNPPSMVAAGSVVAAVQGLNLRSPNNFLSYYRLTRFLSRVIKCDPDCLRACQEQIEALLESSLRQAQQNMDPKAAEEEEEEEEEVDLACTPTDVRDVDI
Chain of CDK4/cyclin D1 (P11802 whole entry, species assumed): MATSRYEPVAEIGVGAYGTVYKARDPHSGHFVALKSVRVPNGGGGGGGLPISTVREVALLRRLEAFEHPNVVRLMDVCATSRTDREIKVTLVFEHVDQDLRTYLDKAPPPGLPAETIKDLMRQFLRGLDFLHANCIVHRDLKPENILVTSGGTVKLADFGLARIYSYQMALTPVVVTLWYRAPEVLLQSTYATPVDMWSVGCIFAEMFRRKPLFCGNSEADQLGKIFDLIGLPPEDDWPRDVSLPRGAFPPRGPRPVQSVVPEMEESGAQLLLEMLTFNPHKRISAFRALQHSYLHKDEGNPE
Chain of CDK4/cyclin D1 (P24385 whole entry partner, species assumed): as the sequence (P24385 whole entry partner, species assumed) above

## COc1cc(F)ccc1-c1ccnc(NC(=O)N[C@H]2CC[C@H](N)CC2)c1 [Example 2, 1-((1r,4r)-4-aminocyclohexyl)-3-(4-(4-fluoro-2-methoxyphenyl)pyridin-2-yl)urea]
[1]
  inhibition at 0.01 µM: 57%
  inhibition at 0.1 µM: 88%
  IC50: 5.7 nM
CDK6/cyclin D1
  inhibition at 0.01 µM: 2.6%
  inhibition at 0.1 µM: 13.8%
CDK1/cyclin B
  inhibition at 0.01 µM: 1.3%
  inhibition at 0.1 µM: 7.8%
CDK4/cyclin D1
  inhibition at 0.01 µM: -7%
  inhibition at 0.1 µM: 1.8%
CDK7/cyclin H
  inhibition at 0.01 µM: -6.6%
  inhibition at 0.1 µM: -3.8%

## COCCN[C@H]1CC[C@H](NC(=O)Nc2cc(-c3ccc(F)cc3OC)ccn2)CC1 [Example 3, 1-(4-(4-fluoro-2-methoxyphenyl)pyridin-2-yl)-3-((1r,4r)-4-((2-methoxyethyl)amino)cyclohexyl) urea]
[1]
  inhibition at 0.01 µM: 50.2%
  inhibition at 0.1 µM: 96.7%
  IC50: 6.2 nM
CDK6/cyclin D1
  inhibition at 0.01 µM: 9.9%
  inhibition at 0.1 µM: 18.9%
CDK1/cyclin B
  inhibition at 0.01 µM: -1.9%
  inhibition at 0.1 µM: -1.4%
CDK4/cyclin D1
  inhibition at 0.01 µM: 7.2%
  inhibition at 0.1 µM: 25.1%
CDK7/cyclin H
  inhibition at 0.01 µM: -24.5%
  inhibition at 0.1 µM: -2.6%

## CC(=O)N[C@H]1CC[C@@H](NC(=O)Nc2cc(-c3cnn4c3CC(C)(C)C4)c(Cl)cn2)CC1 [Example 67, N-((1s,4s)-4-(3-(5-chloro-4-(5,5-dimethyl-5,6-dihydro-4H-pyrrolo[1,2-b]pyrazol-3-yl)pyridin-2-yl)ureido)cyclohexyl)acetamide]
[1]
  inhibition at 0.01 µM: 68%
  inhibition at 0.1 µM: 85%
  IC50: 5.3 nM
CDK6/cyclin D1
  inhibition at 0.01 µM: 4%
  inhibition at 0.1 µM: 19.1%
CDK1/cyclin B
  inhibition at 0.01 µM: 4.7%
  inhibition at 0.1 µM: 47.4%
CDK4/cyclin D1
  inhibition at 0.01 µM: 9.5%
  inhibition at 0.1 µM: 18%
CDK7/cyclin H
  inhibition at 0.01 µM: -4%
  inhibition at 0.1 µM: 44%

## CC(=O)NC1CCC(NC(=O)Nc2cc(-c3cnn4c3CC3(CC3)C4)c(Cl)cn2)CC1 (stereo not drawn) [Example 81, N-((1r,4r)-4-(3-(5-chloro-4-(4′H,6′H-spiro[cyclopropane-1,5′-pyrrolo[1,2-b]pyrazole]-3′-yl)pyridin-2-yl)ureido)cyclohexyl)acetamide]
[1]
  inhibition at 0.01 µM: 58.3%
  inhibition at 0.1 µM: 91.5%

## CC(=O)NC1CCC(NC(=O)Nc2cc(-c3cnn4c3COCC4)c(Cl)cn2)CC1 (stereo not drawn) [Example 82, N-((1r,4r)-4-(3-(5-chloro-4-(6,7-dihydro-4H-pyrazolo[5,1-c][1,4]oxazine-3-yl)pyridin-2-yl)ureido)cyclohexyl)acetamide]
[1]
  inhibition at 0.01 µM: 38%
  inhibition at 0.1 µM: 79.2%

## CC(=O)NC1CCC(NC(=O)Nc2cc(-c3cnn4c3CN(C)CC4)c(Cl)cn2)CC1 (stereo not drawn) [Example 83, N-((1r,4r)-4-(3-(5-chloro-4-(5-methyl-4,5,6,7-tetrahydropyrazolo[1,5-a]pyrazin-3-yl)pyridin-2-yl)ureido)cyclohexyl)acetamide]
[1]
  inhibition at 0.01 µM: 40.2%
  inhibition at 0.1 µM: 68.3%

## CC(=O)NC1CCC(NC(=O)Nc2cc(-c3cnn4c3CCC4)c(Cl)cn2)CC1 (stereo not drawn) [Example 84, N-((1r,4r)-4-(3-(5-chloro-4-(5,6-dihydro-4H-pyrrolo[1,2-b]pyrazol-3-yl)pyridin-2-yl)ureido)cyclohexyl)acetamide]
[1]
  inhibition at 0.01 µM: 39.5%
  inhibition at 0.1 µM: 66.3%

## CC(=O)NC1CCC(NC(=O)Nc2cc(-c3cnc(C)n3C(C)C)c(Cl)cn2)CC1 (stereo not drawn) [Example 85, N-((1r,4r)-4-(3-(5-chloro-4-(1-isopropyl-2-methyl-1H-imidazol-5-yl)pyridin-2-yl)ureido)cyclohexyl)acetamide]
[1]
  inhibition at 0.01 µM: 28.9%
  inhibition at 0.1 µM: 72%

## CC(=O)NC1CCC(NC(=O)Nc2cc(-c3cnc4n3CC(C)(C)C4)c(Cl)cn2)CC1 (stereo not drawn) [Example 86, N-((1r,4r)-4-(3-(5-chloro-4-(6,6-dimethyl-6,7-dihydro-5H-pyrrolo [1,2-a]imidazol-3-)pyridin-2-yl)ureido)cyclohexyl)acetamide]
[1]
  inhibition at 0.01 µM: 50.1%
  inhibition at 0.1 µM: 88.3%

## CC(=O)NC1CCC(NC(=O)Nc2cc(-n3cnc(C4CC4)c3)c(Cl)cn2)CC1 (stereo not drawn) [Example 87, N-((1r,4r)-4-(3-(5-chloro-4-(4-cyclopropyl-1H-imidazol-1-yl)pyridin-2-yl)ureido)cyclohexyl)acetamide]
[1]
  inhibition at 0.01 µM: 43.8%
  inhibition at 0.1 µM: 75.3%

## CNC1CCC(NC(=O)Nc2cc(-c3cnn4c3CC(C)(C)C4)c(Cl)cn2)CC1 (stereo not drawn) [Example 88, 1-(5-chloro-4-(5,5-dimethyl-5,6-dihydro-4H-pyrrolo[1,2-b]pyrazol-3-yl)pyridin-2-yl)-3-((1r,4r)-4-(methylamino)cyclohexyl)urea]
[1]
  inhibition at 0.01 µM: 55.7%
  inhibition at 0.1 µM: 94.2%

## CN(C)C1CCC(NC(=O)Nc2cc(-c3cnn4c3CC(C)(C)C4)c(Cl)cn2)CC1 (stereo not drawn) [Example 89, 1-(5-chloro-4-(5,5-dimethyl-5,6-dihydro-4H-pyrrolo[1,2-b]pyrazol-3-yl)pyridin-2-yl)-3-((1r,4r)-4-(dimethylamino)cyclohexyl)urea]
[1]
  inhibition at 0.01 µM: 63.7%
  inhibition at 0.1 µM: 92.7%

## COCCN(C)C1CCC(NC(=O)Nc2cc(-c3cnn4c3CC(C)(C)C4)c(Cl)cn2)CC1 (stereo not drawn) [Example 90, 1-(5-chloro-4-(5,5-dimethyl-5,6-dihydro-4H-pyrrolo[1,2-b]pyrazol-3-yl)pyridin-2-yl)-3-((1r,4r)-4-((2-methoxyethyl)(methyl)amino)cyclohexyl)urea]
[1]
  inhibition at 0.01 µM: 61%
  inhibition at 0.1 µM: 98%

## COCC[N+](C)(C)C1CCC(NC(=O)Nc2cc(-c3cnn4c3CC(C)(C)C4)c(Cl)cn2)CC1 (stereo not drawn) [Example 91, (1r,4r)-4-(3-(5-chloro-4-(5,5-dimethyl-5,6-dihydro-4H-pyrrolo[1,2-b]pyrazol-3-yl)pyridin-2-yl)ureido)-N-(2-methoxyethyl)-N,N-dimethylcyclohexyl-1-ammonium salt]
[1]
  inhibition at 0.01 µM: 63%
  inhibition at 0.1 µM: 88%

## CC1(C)Cc2c(-c3cc(NC(=O)NC4CCC(N5CCOCC5)CC4)ncc3Cl)cnn2C1 (stereo not drawn) [Example 92, 1-(5-chloro-4-(5,5-dimethyl-5,6-dihydro-4H-pyrrolo[1,2-b]pyrazol-3-yl)pyridin-2-yl)-3-((1r, 4r)-4-morpholinylcyclohexyl)urea]
[1]
  inhibition at 0.01 µM: 58.9%
  inhibition at 0.1 µM: 93.7%
